Test results from patent publication US12622890B2, “Use of the active compound in the prevention or treatment of ovarian dysfunction diseases” (INSTITUTE OF BIOPHYSICS, CHINESE ACADEMY OF SCIENCES, priority 2022, dated 2026).

Experiments:
[1] = test system: POI mice; test: Serum relative reactive oxygen species (ROS) level; assay type: in vivo
Source text: (§1) Biomarkers mentioned herein, such as follicle stimulating hormone (FSH), estrogen (e.g., E2), and superoxide dismutase (SOD), malondialdehyde (MDA), relative reactive oxygen species (ROS), and lactate dehydrogenase (LDH), etc., can be detected using methods commonly known in the field. Detection methods typically cover methods that quantify the level of a biomarker in a sample (quantitative methods). Which of the following methods are suitable for qualitative and/or quantitative detection of biomarkers is generally known to those skilled in the field. Samples can be conveniently measured, for example for proteins using immunoassays such as ELISA, RIA, etc., which are commercially available.
(§2) The oxidative stress hypothesis believes that the reduction of antioxidant components in the body leads to the weakening of the ability to remove free radicals, which leads to oxidative damage of biological macromolecules, and the imbalance of cellular oxidative and antioxidant functions, which leads to oxidative stress, and then leads to disease and aging. Oxygen free radicals act on unsaturated fatty acids of lipids to generate lipid peroxides, including malondialdehyde (MDA) and so on. The antioxidant defense system of scavenging free radicals includes superoxide dismutase (SOD) and so on. Recently, oxidative stress has been reported to be associated with ovarian aging and POI in primates. Therefore, this embodiment examined the effects of DMF, HDCA, and DMF+HDCA on oxidative stress in mice with premature ovarian failure, and the results are shown in Table 5, FIGS. 9 to 12.

[2] = test system: ovarian tissues; test: RNA transcription level sequencing of ovarian tissues, differentially expressed genes; assay type: in vivo, mice; conditions: ovarian tissue RNA sequencing, FC>2, Q<0.05
Description: Mice were sacrificed after various treatments, and ovarian tissues were taken, snap-frozen in liquid nitrogen, stored at −80° C., and sent to Annoroad for RNA transcription level sequencing. Bioinformatics analysis and mapping were performed on the sequencing results. […] The differential genes of the three treatment groups were intersectioned. […] These differential gene sets were then subjected to Gene Ontology function (GO) enrichment (FC>2, Q<0.05) (FIG. 16) and signaling pathway (KEGG) analysis mapping (FIG. 17), respectively.

[3] = test system: POI mice; test: Serum superoxide dismutase (SOD) level, oxidative stress; assay type: in vivo
Source text: as §1
(§3) After 12 days of administration, half of the mice in each group were sacrificed, and their blood was collected and kept still. The serum was separated after centrifugation at 4500 rpm and stored in a refrigerator at −80° C. for future use to measure levels of follicle stimulating hormone, estrogen, and the indexes of oxidative stress such as superoxide dismutase (SOD) and malondial dehyde (MDA).
(§4) After 12 days of administration, half of the mice in each group were sacrificed, and their blood was collected and kept in still. The serum was separated after centrifugation at 4500 rpm and stored in a refrigerator at −80° C. for future use to measure levals of follicle stimulating hormone, estrogen, and the indexes of oxidative stress such as superoxide dismutase (SOD) and malondialdehyde (MDA).
as §2

[4] = test system: POI mice; test: Serum FSH level in POI mice; assay type: in vivo; conditions: for FSH: serum, after 12 days 100 mg/kg/d oral
Source text: as §1, §3, §4
• 1. Hormone levels in mice blood of Example 1 are measured in this embodiment.

[5] = test system: POI model mice; test: Estrous cycle observation by vaginal smear cytology in POI model mice; assay type: in vivo
Description: Cytological observation of vaginal smear was performed daily.
The vagina of mice was exposed, and about 30 μl of normal saline was dripped into the vagina, gently aspirated onto the slide, and observed under the microscope. Staining was performed when necessary, fixed with 95% ethanol for 10 minutes, stained with hematoxylin in aqueous solution for 5-8 minutes, washed with running water for color separation, and then stained with eosin for 3 minutes. After drying. the slices were sealed with neutral gum.
The vagina of mice was exposed, and about 30 μl of normal saline was dripped into the vagina, gently aspirated onto the slide, and observed under the microscope. Staining was performed when necessary, stained with hematoxylin in aqueous solution for several minutes after drying, washed with running water for color separation, and then stained with alchhol eosin for several seconds. The slices were sealed with neutral gum.
During the estrous cycle, a series of histological and physiological changes occur in the reproductive and endocrine systems of mice. According to these changes, the estrous cycle can be divided into proestrous (P), estrous (E), metestrum (M) and diestrum (D). • 1. Observation of estrous cycle in mice of Example 1
After modeling and treatment, there were 6 mice left in the normal saline group, 6 mice left in the sodium fumarate treatment group, 7 mice left in the hyodeoxycholic acid group, and 7 mice left in the sodium fumarate and hyodeoxycholic acid combination group. […] The estrous cycle was divided into four periods (P: proestrous; E: estrous period; M: metestrum; D: diestrum) for vaginal smear cytological observation, the results are shown in FIG. 3.
The estrous cycle of mice was plotted according to the cytological results of vaginal smears observed for 12 consecutive days, and the results are shown in FIG. 4. The estrous cycle of mice is about 4 to 5 days, which is divided into four periods alternately. […] The estrous cycle of 4 mice was recovered in sodium fumarate treatment group. The estrous cycle of 3 mice was recovered in HDCA group. The estrous cycle of 6 mice was recovered in group treated with SF and HDCA.

[6] = test system: POI mice; test: Serum estradiol (E2) level in POI mice; assay type: in vivo; conditions: for E2: serum, after 12 days 100 mg/kg/d oral
Source text: as §1, §3, §4

[7] = test system: POI model mice; test: Estrous cycle observation by vaginal smear cytology in POI model mice; assay type: in vivo; remark: listed apart in the source
[8] = test system: POI mice; test: Serum malondialdehyde (MDA) level, oxidative stress; assay type: in vivo
Source text: as §1, §3, §4, §2

[9] = test system: POI mice; test: Serum lactate dehydrogenase (LDH) level; assay type: in vivo
Source text: as §1

[10] = serum, POI mice after treatment
[11] = Example 2, FIG. 8, not statistically significant
[12] = Example 1, during drug administration, FIG. 4B
[13] = Example 2, during drug administration, FIG. 5B

C[C@H](CCC(=O)O)[C@H]1CC[C@H]2[C@@H]3C[C@H](O)[C@@H]4C[C@H](O)CC[C@]4(C)[C@H]3CC[C@]12C [HDCA, hyodeoxycholic acid, reference compound]
ROS levels compared with the normal saline group ([1]; FIG. 11): significantly reduced
ROS ([1]; relative ROS level in serum, POI mice after treatment): 4.589 ± 0.599
Number of genes down-regulated compared with the control group [2]: 4749 genes
Number of genes up-regulated compared with the control group [2]: 1898 genes
Activity of SOD compared with the normal saline group ([3]; FIG. 9, difference not significant): increased
SOD [3, 10]: 14.59 ± 5.65 U/mL
Serum FSH level compared with the normal saline group ([4]; Example 1, FIG. 6): decreasing trend
Serum FSH level compared with the normal saline group [4, 11]: certain decreasing trend
FSH ([4]; Example 1 POI mice): 4.85 ± 2.34 mIU/mL
FSH ([4]; Example 2 POI mice): 1.65 ± 0.76 mIU/mL
Effect on mice with premature ovarian failure (conclusion from estrous cycle) ([5]; Example 1): preventive and therapeutic effects
Average rate of diestrum (D) in estrous cycle [5, 12]: 39.29%
Average rate of estrous stage (E) in estrous cycle [5, 12]: 22.62%
Average rate of metestrum (M) in estrous cycle [5, 12]: 14.29%
Average rate of proestrous (P) in estrous cycle [5, 12]: 23.81%
Number of mice with estrous cycle recovered ([5]; Example 1, 12 days observation, 6 SF, 7 HDCA, 7 SF and HDCA mice left): 3 mice
Serum E2 level compared with the normal saline group ([6]; Example 1, FIG. 7): tendency to increase
Serum E2 level compared with the normal saline group [6, 11]: certain tendency to decrease
E2 ([6]; Example 1 POI mice): 49.69 ± 7.11 pg/mL
E2 ([6]; Example 2 POI mice): 42.96 ± 14.28 pg/mL
Effect on mice with premature ovarian failure (conclusion from estrous cycle) ([7]; Example 2): preventive and therapeutic effects
Average rate of diestrum (D) in estrous cycle [7, 13]: 52.08%
Average rate of estrous (E) stage in estrous cycle [7, 13]: 6.25%
Average rate of metestrum (M) in estrous cycle [7, 13]: 12.50%
Average rate of proestrous (P) in estrous cycle [7, 13]: 29.17%
Number of mice with estrous cycle recovered ([7]; Example 2, 12 days observation, DMF n=5, HDCA n=6, DMF and HDCA n=7): 3 mice
MDA activity compared with the normal saline group ([8]; FIG. 10, no significant difference): reduced to some extent
MDA [8, 10]: 2.86 ± 4.39 nmol/mL
Activity of LDH compared with the normal saline group ([9]; FIG. 12): reduced to some extent
LDH [9, 10]: 2821.58 ± 318.30 U/mL
